Assay results taken from US5468767A, “Antidepressant 3-(aminocycloalkenyl)-indole-5-nitrile derivatives” (Bristol-Myers Squibb Company, priority 1994, dated 1995).

Tested on: synaptosomal re-uptake of tritiated serotonin
Test: In vitro inhibition of synaptosomal re-uptake of tritiated serotonin (5-HT uptake inhibition)
Format: biochemical
Experimental: Determination of endogenous monoaminergic re-uptake inhibition values both for serotonin and norepinephrine was accomplished using test methods described by P. Skolnick, et al., Br. J. Pharmacology, (1985), 86, pp. 637-644; with only minor modifications. In vitro IC50 (nM) test values were determined for representative compounds of Formula I based on their inhibition of synaptosomal re-uptake of tritiated serotonin. Test data IC50 values lower than 500 nM are considered to reflect activity as an inhibitor of serotonin re-uptake.
In vitro IC50 (nM) test values below 100 nM are designated with ** and those below 10 nM with ***.

| Compound | IC50 |
| --- | --- |
| CC(C)NC1CC=C(c2c[nH]c3ccc(C#N)cc23)CC1 (stereo not drawn) [Example 26] | < 100 nM |
| N#Cc1ccc2[nH]cc(C3=CCC(NCCc4cccc(F)c4)CC3)c2c1 (stereo not drawn) [Example 30] | < 10 nM |
| N#Cc1ccc2[nH]cc(C3=CCC(NCCc4ccccc4)CC3)c2c1 (stereo not drawn) [Example 28] | < 10 nM |
| CN(CCc1ccccc1)C1CC=C(c2c[nH]c3ccc(C#N)cc23)CC1 (stereo not drawn) [Example 29] | < 10 nM |
| CN(C)C1CC=C(c2c[nH]c3ccc(C#N)cc23)CC1 (stereo not drawn) [Example 23] | < 10 nM |
| N#Cc1ccc2[nH]cc(C3=CCC(NCCc4cccnc4)CC3)c2c1 (stereo not drawn) [Example 37] | < 10 nM |
| CCN(CC)C1CC=C(c2c[nH]c3ccc(C#N)cc23)CC1 (stereo not drawn) [Example 24] | < 100 nM |
| COc1ccc(CCNC2CC=C(c3c[nH]c4ccc(C#N)cc34)CC2)cc1 (stereo not drawn) [Example 36] | < 10 nM |
| N#CCc1ccc2[nH]cc(C3=CCC(NCCc4ccccc4)CC3)c2c1 (stereo not drawn) [Example 31, 3-[[4-(2-Phenylethyl)amino]-1-cyclohexen-1-yl]-1H-indole-5-acetonitrile] | < 100 nM |
| CCNC1CC=C(c2c[nH]c3ccc(C#N)cc23)CC1 (stereo not drawn) [Example 41] | < 100 nM |
| COc1cccc(CCNC2CC=C(c3c[nH]c4ccc(C#N)cc34)CC2)c1 (stereo not drawn) [Example 35] | < 10 nM |
| N#Cc1ccc2[nH]cc(C3=CCC(NCC4COc5ccccc5O4)CC3)c2c1 (stereo not drawn) [Example 39] | < 10 nM |
| N#Cc1ccc2[nH]cc(C3=CCC(NCc4ccccc4)CC3)c2c1 (stereo not drawn) [Example 27] | < 10 nM |
| N#Cc1ccc2[nH]cc(C3=CCC(NCCc4ccc(F)cc4)CC3)c2c1 (stereo not drawn) [Example 33] | < 10 nM |
| N#Cc1ccc2[nH]cc(C3=CCC(NCCCCc4ccccc4)CC3)c2c1 (stereo not drawn) [Example 40] | < 10 nM |
| N#Cc1ccc2[nH]cc(C3=CCC(NCCCc4ccccc4)CC3)c2c1 (stereo not drawn) [Example 38] | < 10 nM |
| COc1ccccc1CCNC1CC=C(c2c[nH]c3ccc(C#N)cc23)CC1 (stereo not drawn) [Example 34] | < 10 nM |
| N#Cc1ccc2[nH]cc(C3=CCC(NCCc4ccccc4F)CC3)c2c1 (stereo not drawn) [Example 32] | < 10 nM |
